Experimental findings from US9255100B2 (BAYER INTELLECTUAL PROPERTY GMBH, priority 2010, dated 2016) are described below.

The target in one experiment is T1, N-terminally GST-tagged human full length recombinant Mps-1 kinase (Homo sapiens, UniProt P33981).
T1 construct: N-terminally GST-tagged human full length recombinant Mps-1 kinase; purchased Invitrogen, Karslruhe, Germany PV4071
T1 sequence (P33981 1-857): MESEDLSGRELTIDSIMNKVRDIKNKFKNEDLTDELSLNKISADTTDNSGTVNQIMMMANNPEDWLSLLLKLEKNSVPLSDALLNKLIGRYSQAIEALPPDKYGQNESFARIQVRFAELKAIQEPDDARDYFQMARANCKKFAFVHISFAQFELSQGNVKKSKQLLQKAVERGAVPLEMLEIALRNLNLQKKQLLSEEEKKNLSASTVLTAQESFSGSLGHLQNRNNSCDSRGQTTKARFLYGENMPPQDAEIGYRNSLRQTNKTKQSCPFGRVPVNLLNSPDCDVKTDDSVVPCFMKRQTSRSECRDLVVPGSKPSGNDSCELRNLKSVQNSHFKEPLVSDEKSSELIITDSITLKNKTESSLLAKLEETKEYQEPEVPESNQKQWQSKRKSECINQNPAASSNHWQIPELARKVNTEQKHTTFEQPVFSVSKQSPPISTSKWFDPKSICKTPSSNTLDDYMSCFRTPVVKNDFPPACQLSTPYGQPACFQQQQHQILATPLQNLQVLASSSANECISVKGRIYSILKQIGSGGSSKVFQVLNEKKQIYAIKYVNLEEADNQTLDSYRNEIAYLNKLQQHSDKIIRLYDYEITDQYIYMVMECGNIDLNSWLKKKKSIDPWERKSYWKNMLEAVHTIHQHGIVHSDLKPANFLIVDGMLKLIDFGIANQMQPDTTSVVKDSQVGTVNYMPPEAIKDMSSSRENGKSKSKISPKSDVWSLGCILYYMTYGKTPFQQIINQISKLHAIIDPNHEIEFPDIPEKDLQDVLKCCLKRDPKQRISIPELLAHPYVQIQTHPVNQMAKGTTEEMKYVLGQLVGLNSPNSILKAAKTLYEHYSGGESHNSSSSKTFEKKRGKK
Nature of the experiment: Mps-1 kinase assay (TR-FRET). Type of experiment: biochemical. As to conditions: 10 μM ATP, 1 μM peptide substrate, 60 min at 22° C., read-out: Mps1 IC50. The method in brief: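 Next, Eu-labelled anti-phospho(Ser/Thr) antibody and SA-XLent bind for 1 h at 22° C. Finally, energy transfer quantifies phosphorylated product.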
On the technique in general: TR-FRET usually uses a lanthanide donor and a delayed reading to cut background.
In general, IC50 refers to the concentration that gives 50% inhibition. For `Cc1cc(-c2cnc3c(NCC4CC[S+]([O-])CC4)cc(Sc4ccccc4)nn23)ccc1C(=O)NC1CC1` (stereo not drawn) [Example 303B, N-cyclopropyl-2-methyl-4-[8-({[(trans)-1-oxidotetrahydro-2H-thiopyran-4-yl]methyl}amino)-6-(phenylsulfanyl)imidazo[1,2-b]pyridazin-3-yl]benzamide], the concentration for half-maximal inhibition (IC50) amounted to 0.2 nM.

The experiment is the same for the next values; noted with them: Mps1 IC50 [nM], 10 μM ATP, 1 μM peptide substrate, 60 min at 22° C.
With `Cc1cc(-c2cnc3c(NCC4CCS(=O)(=O)CC4)cc(Sc4ccccc4)nn23)ccc1C(=O)NC1CC1` [Example 302, N-cyclopropyl-4-[8-{[(1,1-dioxidotetrahydro-2H-thiopyran-4-yl)methyl]amino}-6-(phenylsulfanyl)imidazo[1,2-b]pyridazin-3-yl]-2-methylbenzamide], the IC50 turned out to be 0.3 nM.
Consider `Cc1cc(-c2cnc3c(NC[C@H]4CC[S@@+]([O-])CC4)cc(Sc4cccc(F)c4)nn23)ccc1C(=O)NC1CC1` [Example 304A, N-cyclopropyl-4-(6-[(3-fluorophenyl)sulfanyl]-8-({[(cis)-1-oxidotetrahydro-2H-thiopyran-4-yl]methyl}amino)imidazo[1,2-b]pyridazin-3-yl)-2-methylbenzamide], for which the IC50 was under 0.1 nM.
In the case of `Cc1cc(-c2cnc3c(NC[C@H]4CC[S@+]([O-])CC4)cc(Sc4cccc(F)c4)nn23)ccc1C(=O)NC1CC1` [Example 304B, N-cyclopropyl-4-(6-[(3-fluorophenyl)sulfanyl]-8-({[(trans)-1-oxidotetrahydro-2H-thiopyran-4-yl]methyl}amino)imidazo[1,2-b]pyridazin-3-yl)-2-methylbenzamide], the IC50 was 0.1 nM.
With `Cc1cc(-c2cnc3c(NCC(C)(C)O)cc(Nc4ccc(F)cc4)nn23)ccc1C(=O)NC1CC1` [Example 305, N-cyclopropyl-4-{6-[(4-fluorophenyl)amino]-8-[(2-hydroxy-2-methylpropyl)amino]imidazo[1,2-b]pyridazin-3-yl}-2-methylbenzamide], the IC50 is 0.6 nM.
Regarding `Cc1cc(-c2cnc3c(NCC(C)(C)O)cc(Nc4ccccc4)nn23)ccc1C(=O)NC1CC1` [Example 306, 4-{6-anilino-8-[(2-hydroxy-2-methylpropyl)amino]imidazo[1,2-b]pyridazin-3-yl}-N-cyclopropyl-2-methylbenzamide], the IC50 came out at 0.6 nM.
Consider `Cc1cc(-c2cnc3c(NCC(C)(C)O)cc(Nc4ccc(F)c(F)c4)nn23)ccc1C(=O)NC1CC1` [Example 307, N-cyclopropyl-4-{6-[(3,4-difluorophenyl)amino]-8-[(2-hydroxy-2-methylpropyl)amino]imidazo[1,2-b]pyridazin-3-yl}-2-methylbenzamide], for which the IC50 came to 0.5 nM.
Turning to `Cc1cccc(Nc2cc(NCC(C)(C)O)c3ncc(-c4ccc(C(=O)NC5CC5)c(C)c4)n3n2)c1` [Example 308, N-cyclopropyl-4-{8-[(2-hydroxy-2-methylpropyl)amino]-6-[(3-methylphenyl)amino]imidazo[1,2-b]pyridazin-3-yl}-2-methylbenzamide], the IC50 was found to be 1 nM.
Still for that read-out and setting: then `Cc1cc(-c2cnc3c(NCC4CCN(C)CC4)cc(Oc4cccc(F)c4)nn23)ccc1C(=O)NC1CC1` [Example 311, N-cyclopropyl-4-[6-(3-fluorophenoxy)-8-{[(1-methylpiperidin-4-yl)methyl]amino}imidazo[1,2-b]pyridazin-3-yl]-2-methyl-benzamide], with 0.2 nM; and `Cc1cc(-c2cnc3c(NCCCN(C)C)cc(Oc4cccc(F)c4)nn23)ccc1C(=O)NC1CC1` [Example 312, N-cyclopropyl-4-[8-{[3-(dimethylamino)propyl]amino}-6-(3-fluorophenoxy)imidazo[1,2-b]pyridazin-3-yl]-2-methyl-benzamide], with 0.2 nM; and `Cc1cc(-c2cnc3c(NCCS(C)(=O)=O)cc(Oc4cccc(F)c4)nn23)ccc1C(=O)NC1CC1` [Example 313, N-cyclopropyl-4-[6-(3-fluorophenoxy)-8-{[2-(methylsulfonyl)ethyl]amino}imidazo[1,2-b]pyridazin-3-yl]-2-methyl-benzamide], with 0.1 nM.
The same measure, in the same setting: then `Cc1cc(-c2cnc3c(NCC(C)(C)N)cc(Oc4cccc(F)c4)nn23)ccc1C(=O)NC1CC1` [Example 314, 4-{8-[(2-amino-2-methyl-propyl)amino]-6-(3-fluorophenoxy)imidazo[1,2-b]pyridazin-3-yl}-N-cyclopropyl-2-methyl-benzamide], with 0.2 nM; and `Cc1cc(-c2cnc3c(NCC4CNC4)cc(Oc4ccccc4)nn23)ccc1C(=O)NC1CC1` [Example 315, 4-{8-[(azetidin-3-ylmethyl)amino]-6-phenoxy-imidazo[1,2-b]pyridazin-3-yl}-N-cyclopropyl-2-methylbenzamide], with 0.3 nM; and `Cc1cc(-c2cnc3c(NCC(C)(C)O)cc(Sc4nnc[nH]4)nn23)ccc1C(=O)NC1CC1` [Example 316, N-cyclopropyl-4-{8-[(2-hydroxy-2-methylpropyl)amino]-6-(4H-1,2,4-tri-azol-3-ylsulfanyl)imidazo [1,2-b]pyridazin-3-yl}-2-methylbenzamide], with 118 nM.
For `Cc1c[nH]c(Sc2cc(NCC(C)(C)O)c3ncc(-c4ccc(C(=O)NC5CC5)c(C)c4)n3n2)n1` [Example 317, N-cyclopropyl-4-{8-[(2-hydroxy-2-methylpropyl)amino]-6-[(4-methyl-1H-imidazol-2-yl)sulfanyl]imidazo[1,2-b]pyridazin-3-yl}-2-methylbenzamide], the half-maximal inhibitory concentration (IC50) was determined as 7.4 nM.
For `Cc1cc(-c2cnc3c(NCC(C)(C)O)cc(Sc4ncc[nH]4)nn23)ccc1C(=O)NC1CC1` [Example 318, N-cyclopropyl-4-{8-[(2-hydroxy-2-methylpropyl)amino]-6-(1H-imidazol-2-ylsulfanyl)imidazo[1,2-b]pyridazin-3-yl}-2-methylbenzamide], the IC50 came to 64.3 nM.
As to `Cc1cc(-c2cnc3c(NCC(C)(C)O)cc(Oc4ccnn4C)nn23)ccc1C(=O)NC1CC1` [Example 319, N-cyclopropyl-4-{8-[(2-hydroxy-2-methylpropyl)amino]-6-[(1-methyl-1H-pyrazol-5-yl)oxy]imidazo[1,2-b]pyridazin-3-yl}-2-methylbenzamide], the IC50 was 121 nM.
Turning to `Cc1cc(-c2cnc3c(NCC(C)(C)O)cc(Oc4ccc(N5CCNCC5)cc4)nn23)ccc1C(=O)NC1CC1` [Example 320, N-cyclopropyl-4-{8-[(2-hydroxy-2-methylpropyl)amino]-6-[4-(piperazin-1-yl)phenoxy]imidazo [1,2-b]pyridazin-3-yl}-2-methylbenzamide], the IC50 was determined as 3.3 nM.
For the compound `Cc1cc(-c2cnc3c(NCC(C)(C)O)cc(Oc4cnn(C)c4)nn23)ccc1C(=O)NC1CC1` [Example 321, N-cyclopropyl-4-{8-[(2-hydroxy-2-methylpropyl)amino]-6-[(1-methyl-1H-pyrazol-4-yl)oxy]imidazo[1,2-b]pyridazin-3-yl}-2-methylbenzamide], the half-inhibitory concentration (IC50) was found to be 0.6 nM.
On the same count and under the same terms, for `Cc1cc(-c2cnc3c(NCC(C)(C)O)cc(Oc4ccc(N5CCN(C(=O)OC(C)(C)C)CC5)cc4)nn23)ccc1C(=O)NC1CC1` [Example 322, tert-butyl 4-[4-({3-[4-(cyclopropyl-carbamoyl)-3-methyl-phenyl]-8-[(2-hydroxy-2-methylpropyl)amino]imidazo[1,2-b]pyridazin-6-yl}oxy)phenyl]piperazine-1-carboxylate] the value was 70.6 nM; for `Cc1cc(-c2cnc3c(NCCC(F)(F)F)cc(Nc4cccc(F)c4)nn23)ccc1C(=O)NC1CC1` [Example 324, N-cyclopropyl-4-{6-[(3-fluorophenyl)amino]-8-[(3,3,3-trifluoropropyl)amino]imidazo[1,2-b]pyridazin-3-yl}-2-methyl-benzamide], 0.3 nM; for `Cc1cc(-c2cnc3c(NCCC(C)(C)O)cc(Oc4cccc(F)c4)nn23)ccc1C(=O)NC1CC1` [Example 325, N-cyclopropyl-4-{6-(3-fluorophenoxy)-8-[(3-hydroxy-3-methylbutyl)amino]imidazo[1,2-b]pyridazin-3-yl}-2-methyl-benzamide], 0.1 nM.
On the same count and under the same terms, then `Cc1cc(-c2cnc3c(NCC(C)(C)O)cc(OCc4ccccc4)nn23)ccc1C(=O)NC1CC1` [Example 326, 4-{6-(benzyloxy)-8-[(2-hydroxy-2-methylpropyl)amino]imidazo[1,2-b]pyridazin-3-yl}-N-cyclo-propyl-2-methylbenzamide], with 1.9 nM.
Take `Cc1cc(-c2cnc3c(NCC4CCS(=O)(=O)C4)cc(Oc4cccc(F)c4)nn23)ccc1C(=O)NC1CC1` (stereo not drawn) [Example 327, N-cyclopropyl-4-[8-{[(1,1-dioxidotetrahydro-thiophen-3-yl)methyl]amino}-6-(3-fluorophenoxy)imidazo[1,2-b]pyridazin-3-yl]-2-methylbenzamide]: the IC50 is 0.3 nM.
